Reference: the supplement of paper PMC10307832

Tests used:
Assay in all cases: relative viability (nuclei count vs DMSO), 5 days (fraction); higher = more cells survive
[1] = compound: C1CSC2=C(C(=O)N1)SC3=C2C=C(C=C3)O [kb NB 142-70] + CC(=O)c1c(C)c2cnc(Nc3ccc(N4CCNCC4)cn3)nc2n(C2CCCC2)c1=O [Palbociclib] (partner 0.5 µM)
Summary of the method: (§1)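 For relative viability, nuclei counts in treated wells were divided by those in vehicle wells. Lung cancer cell lines had been pin-tool dosed in 1536-well plates the day after seeding and cultured for 5 days, then fixed and stained in one step (final 0.05% Triton X-100, 1% formaldehyde, 1 ug/ml Hoechst) and imaged at 4×. Doses were one drug alone or a fixed anchor-drug dose plus five library-drug doses (not always all listed) in √10 steps, and values are duplicate-plate medians.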

[2] = compound: C1CSC2=C(C(=O)N1)SC3=C2C=C(C=C3)O [kb NB 142-70] + CCNC(=O)c1noc(-c2cc(C(C)C)c(O)cc2O)c1-c1ccc(CN2CCOCC2)cc1 [Luminespib] (partner 0.01 µM)
Summary of the method: as §1

[3] = compound: NCC(=O)Nc1ccc(-n2nc(C(F)(F)F)cc2-c2ccc3c(ccc4ccccc43)c2)cc1 + CC(=O)Nc1cccc(-n2c(=O)n(C3CC3)c(=O)c3c(Nc4ccc(I)cc4F)n(C)c(=O)c(C)c32)c1 [Trametinib] (partner 0.02 µM)
Summary of the method: as §1

[4] = compound: NCC(=O)Nc1ccc(-n2nc(C(F)(F)F)cc2-c2ccc3c(ccc4ccccc43)c2)cc1 + CC(=O)c1c(C)c2cnc(Nc3ccc(N4CCNCC4)cn3)nc2n(C2CCCC2)c1=O [Palbociclib] (partner 0.5 µM)
Summary of the method: as §1

Row | Cell Line | relative viability ([1]; first compound 0.1 µM) | relative viability ([1]; first compound 1 µM) | relative viability ([1]; first compound 3.162 µM) | relative viability ([2]; first compound 0.1 µM) | relative viability ([2]; first compound 1 µM) | relative viability ([2]; first compound 3.162 µM) | relative viability ([3]; first compound 0.02 µM) | relative viability ([3]; first compound 0.06325 µM) | relative viability ([3]; first compound 0.2 µM) | relative viability ([3]; first compound 0.6325 µM) | relative viability ([3]; first compound 2 µM) | relative viability ([4]; first compound 0.02 µM) | relative viability ([4]; first compound 0.06325 µM) | relative viability ([4]; first compound 0.2 µM) | relative viability ([4]; first compound 0.6325 µM) | relative viability ([4]; first compound 2 µM)
1 | NCI-H520 | 0.234 | 0.21 | 0.164 | 0.255 | 0.247 | 0.214 | 0.637 | 0.641 | 0.747 | 0.678 | 0.679 | 0.222 | 0.224 | 0.24 | 0.193 | 0.258
2 | NCI-H522 | 0.988 | 0.789 | 0.77 | 1.18 | 1.03 | 0.974 | 0.596 | 0.684 | 0.781 | 0.92 | 0.813 | 0.844 | 0.996 | 0.998 | 0.934 | 0.992
3 | NCI-H647 | 0.289 | 0.372 | 0.414 | 0.177 | 0.184 | 0.11 | 0.535 | 0.512 | 0.591 | 0.434 | 0.49 | 0.431 | 0.385 | 0.564 | 0.294 | 0.402
4 | NCI-H650 | 0.362 | 0.422 | 0.394 | 0.76 | 0.777 | 0.499 | 0.991 | 1.03 | 1.01 | 0.948 | 0.994 | 0.377 | 0.315 | 0.329 | 0.358 | 0.296
5 | NCI-H661 | 0.379 | 0.363 | 0.342 | 0.905 | 0.845 | 0.805 | 0.547 | 0.559 | 0.56 | 0.644 | 0.588 | 0.412 | 0.402 | 0.39 | 0.416 | 0.433
6 | NCI-H727 | 0.681 | 0.653 | 0.678 | 0.226 | 0.346 | 0.42 | 0.411 | 0.372 | 0.351 | 0.346 | 0.394 | 0.674 | 0.795 | 0.56 | 0.72 | 0.682
7 | NCI-H838 | 0.203 | 0.219 | 0.188 | 0.374 | 0.339 | 0.218 | 0.515 | 0.539 | 0.521 | 0.43 | 0.411 | 0.228 | 0.237 | 0.224 | 0.192 | 0.213
8 | NCI-H1355 | 0.417 | 0.39 | 0.404 | 0.733 | 0.683 | 0.553 | 0.414 | 0.481 | 0.47 | 0.428 | 0.433 | 0.426 | 0.43 | 0.393 | 0.408 | 0.405
9 | NCI-H1395 | 0.582 | 0.685 | 0.631 | 0.79 | 0.69 | 0.464 | 1.09 | 0.998 | 1.1 | 1.03 | 1.09 | 0.702 | 0.678 | 0.617 | 0.621 | 0.614
10 | NCI-H1437 | 0.337 | 0.297 | 0.279 | 1.12 | 1.1 | 0.932 | 0.519 | 0.579 | 0.497 | 0.467 | 0.683 | 0.331 | 0.328 | 0.3 | 0.341 | 0.307
11 | NCI-H1650 | 0.362 | 0.39 | 0.321 | 0.204 | 0.19 | 0.18 | 0.403 | 0.54 | 0.648 | 0.769 | 0.642 | 0.377 | 0.37 | 0.225 | 0.319 | 0.343
12 | NCI-H1651 | 0.527 | 0.555 | 0.526 | 0.926 | 0.856 | 0.354 | 0.804 | 0.815 | 0.858 | 0.798 | 0.851 | 0.508 | 0.555 | 0.497 | 0.539 | 0.541
13 | NCI-H1666 | 0.581 | 0.591 | 0.693 | 0.898 | 0.985 | 0.81 | 0.905 | 0.849 | 0.914 | 0.868 | 0.851 | 0.658 | 0.677 | 0.69 | 0.616 | 0.624
14 | NCI-H1734 | 0.365 | 0.363 | 0.279 | 0.185 | 0.205 | 0.171 | 0.686 | 0.712 | 0.667 | 0.657 | 0.7 | 0.361 | 0.343 | 0.345 | 0.333 | 0.356
15 | NCI-H1755 | 0.466 | 0.411 | 0.44 | 0.49 | 0.45 | 0.557 | 0.782 | 0.765 | 0.737 | 0.768 | 0.71 | 0.48 | 0.444 | 0.448 | 0.471 | 0.434
16 | NCI-H1792 | 0.586 | 0.722 | 0.836 | 0.429 | 0.582 | 0.553 | 0.486 | 0.425 | 0.471 | 0.406 | 0.436 | 0.651 |  | 0.696 | 0.591 | 0.66
17 | NCI-H1793 | 0.301 | 0.329 | 0.357 | 0.188 | 0.179 | 0.153 | 0.438 | 0.373 | 0.498 | 0.435 | 0.396 | 0.333 | 0.295 | 0.337 | 0.339 | 0.363
18 | NCI-H1915 | 0.498 | 0.52 | 0.343 | 0.797 | 0.897 | 0.489 | 0.284 | 0.314 | 0.31 | 0.296 | 0.322 | 0.535 | 0.509 | 0.517 | 0.507 | 0.541
19 | NCI-H1944 | 0.334 | 0.358 | 0.376 | 0.708 | 0.726 | 0.8 | 0.429 | 0.408 | 0.437 | 0.413 | 0.403 | 0.333 | 0.353 | 0.35 | 0.32 | 0.355
